Patent US20250263404A1, “AMINOPYRIDINES AS ACTIVATORS OF PI3 KINASE” (UCL Business Ltd, priority 2021, published 2025)

How the values were obtained:
PI3Kα = PI3Kα (Homo sapiens, UniProt P42336); test: FRET membrane binding assay, PI3Kα; format: biochemical; design: Full-length p110α was expressed in a complex with full-length p85α (for biochemistry and HDX-MS); 6xHis followed by TEV protease site (N); made in house; host or cells: Spodoptera frugiperda Sf9 (baculovirus co-infection; plasmids OP831 and OP809); details: compared with pY
Sequence of PI3Kα (P42336 whole entry): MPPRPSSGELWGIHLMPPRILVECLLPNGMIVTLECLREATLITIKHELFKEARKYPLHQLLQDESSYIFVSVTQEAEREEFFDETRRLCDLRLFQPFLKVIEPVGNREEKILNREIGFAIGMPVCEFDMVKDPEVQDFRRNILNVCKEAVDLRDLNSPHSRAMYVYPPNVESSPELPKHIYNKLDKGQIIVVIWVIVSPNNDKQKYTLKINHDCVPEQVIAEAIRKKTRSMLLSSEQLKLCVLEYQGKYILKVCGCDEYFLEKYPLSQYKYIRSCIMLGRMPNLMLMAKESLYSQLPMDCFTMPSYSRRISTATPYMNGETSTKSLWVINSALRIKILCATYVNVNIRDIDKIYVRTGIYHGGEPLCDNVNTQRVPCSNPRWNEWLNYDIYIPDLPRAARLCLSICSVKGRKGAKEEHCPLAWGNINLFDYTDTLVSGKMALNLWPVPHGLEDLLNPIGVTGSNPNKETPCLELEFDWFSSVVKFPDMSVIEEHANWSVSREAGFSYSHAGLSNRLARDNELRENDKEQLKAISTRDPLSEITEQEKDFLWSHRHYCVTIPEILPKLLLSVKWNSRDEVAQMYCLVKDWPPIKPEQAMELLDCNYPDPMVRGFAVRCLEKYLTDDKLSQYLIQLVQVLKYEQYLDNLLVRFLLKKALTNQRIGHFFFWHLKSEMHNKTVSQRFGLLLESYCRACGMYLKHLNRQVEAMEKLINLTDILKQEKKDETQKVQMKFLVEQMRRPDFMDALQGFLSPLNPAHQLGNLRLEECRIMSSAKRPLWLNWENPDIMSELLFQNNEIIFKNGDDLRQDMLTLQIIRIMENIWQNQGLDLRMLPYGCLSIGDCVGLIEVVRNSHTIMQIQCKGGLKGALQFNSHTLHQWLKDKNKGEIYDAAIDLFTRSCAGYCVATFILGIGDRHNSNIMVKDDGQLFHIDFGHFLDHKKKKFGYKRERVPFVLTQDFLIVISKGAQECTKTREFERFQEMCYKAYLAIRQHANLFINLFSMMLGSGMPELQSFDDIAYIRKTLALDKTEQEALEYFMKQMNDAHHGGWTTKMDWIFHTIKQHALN
Sequence of PI3Kα (P27986 whole entry partner): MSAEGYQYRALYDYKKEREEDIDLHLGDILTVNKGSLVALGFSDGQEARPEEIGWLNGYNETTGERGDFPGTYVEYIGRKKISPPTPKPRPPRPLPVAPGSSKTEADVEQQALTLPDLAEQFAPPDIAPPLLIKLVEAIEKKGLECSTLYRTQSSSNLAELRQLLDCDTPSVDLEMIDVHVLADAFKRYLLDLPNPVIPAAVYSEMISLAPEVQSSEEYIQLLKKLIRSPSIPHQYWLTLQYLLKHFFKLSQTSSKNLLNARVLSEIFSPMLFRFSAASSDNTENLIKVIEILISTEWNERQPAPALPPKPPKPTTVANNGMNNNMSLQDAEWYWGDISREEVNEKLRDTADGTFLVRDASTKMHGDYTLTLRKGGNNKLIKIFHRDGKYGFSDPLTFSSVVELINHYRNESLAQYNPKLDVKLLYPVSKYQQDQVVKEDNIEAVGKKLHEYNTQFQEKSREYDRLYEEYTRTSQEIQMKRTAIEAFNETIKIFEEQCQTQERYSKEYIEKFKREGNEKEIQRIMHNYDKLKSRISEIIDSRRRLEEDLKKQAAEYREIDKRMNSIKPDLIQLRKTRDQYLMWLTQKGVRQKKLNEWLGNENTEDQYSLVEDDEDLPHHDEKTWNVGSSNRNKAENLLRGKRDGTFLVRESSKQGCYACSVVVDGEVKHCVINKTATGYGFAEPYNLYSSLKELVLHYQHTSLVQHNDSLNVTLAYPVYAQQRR
Procedure: Membrane binding assays were performed as previously published (Burke, J. E. et al. Proc Natl Acad Sci USA 109, 15259-15264 (2012)). Briefly, liposomes were prepared with 5% (w/v) brain PtdIns(4,5)P2, 20% brain phosphatidylserine, 35% brain phosphatidylethanolamine, 15% brain phosphatidylcholine, 10% cholesterol, 5% sphingomyelin, and 10% dansyl-phosphatidylserine (Avanti Polar Lipids). PI3Kα was used at a final concentration of 0.5 μM. Protein solutions were preincubated with 10 μM pY or compounds for 10 min before addition of liposomes. Liposomes were used at a final concentration of 50 μg/ml. The reaction mixture contained 5 μl enzyme, 2 μl compound and 3 μl liposomes, all diluted in 30 mM HEPES, 50 mM NaCl, pH 7.4. The reaction was allowed to proceed for 10 min at room temperature in 384 black-polystyrene plates (Corning #3544) on an orbital shaker at 200 rpm. FRET signals were measured using PHERAStar (BMG) with a 280 nm excitation filter with 350 nm and 520 nm emission filters to measure Dansyl-PS FRET emissions, respectively. FRET signal shown as I-I0, where I is the intensity at 520 nm, and 10 is the intensity at 520 nm for the solution in the absence of protein.

[1] = tested on: 133 protein kinases and 7 lipid kinases; test: SelectScreen kinase profiling panel; format: biochemical
Procedure: 133 protein kinases and 7 lipid kinases were counterscreened, with […] used at 1 μM, using the Adapta, Lantha and Z-LYTE assays (SelectScreen Kinase Profiling Service; Thermofisher—experimental details of these assays can be found here: https://www.thermofisher.com/uk/en/home/industrial/pharma-biopharma/drug-discovery-development/target-and-lead-identification-and-validation/kinasebiology/kinase-activity-assays.html. The tree representation in KinMap generated courtesy of Cell Signaling Technology, Inc. (www.cellsignal.com). mTORC1 (mTOR/RAPTOR/LST8) protein complex and ATM kinase and substrates were produced as previously described (Anandapadamanaban, M. et al. Science (New York, NY 366, 203-210 (2019); Baretic, D. et al. Sci Adv 3, e1700933 (2017). Screening of 1938 was conducted using SuperSep Phos-Tag 50 μmol/l 100×100×6.6 mm 17-well (192-18001/199-18011) gels. For ATM assays, 100 nM ATM was incubated for 30 min at 30° C. with 5 μM GST-p53 and 1 mM ATP, in the absence or presence of 200 μM 1938 in ATM Kinase Buffer (50 mM HEPES pH 7.5, 100 mM NaCl, 10% glycerol, 2 mM […], 5 mM MgCl2). […] Gels were then stained using InstantBlue™ Coomassie stain, and then quantified using BioRad Image Lab Software. […]

[2] = tested on: exposed rat sciatic nerves; test: pAKT induction in exposed rat sciatic nerves; format: in vivo; details: direct injection or bathing, 5 μM
Procedure: Stimulated by these observations, we next tested 1938 in the sciatic nerve crush model in the rat, an in vivo model of peripheral nerve injury and regeneration. […] Immediately after the nerve crush (FIG. 5e, i-ii), 1938 was delivered via a single intraneural injection into the proximal crush site (FIG. 5e, iii) and via a minipump implanted adjacent to the nerve (FIG. 5e, iv), loaded with 1938 solution, for continuous delivery for the duration of the experiment. Analyses were conducted 3 weeks after injury.
Test experiment to assess if 1938 could induce pAkt generation in exposed rat sciatic nerves, adult male Sprague Dawley rats (>250 g; n=2) were anaesthetised using isoflurane, the left leg sciatic nerve was exposed and injected with 2 μl vehicle (sterile dH2O) or 1938 (5 μM in sterile dH2O). Meanwhile the sciatic nerve of the right leg was exposed and bathed in 250 μl of vehicle (sterile dH2O) or 1938 (5 μM in sterile dH2O). Each animal received one vehicle and one compound treatment. The treatments were left on for 30 min prior to washing the bathed nerves with sterile PBS and culling via sodium pentobarbital injection according to local regulations, the animal by schedule 1. Nerves were then harvested, washed in fresh 4° C. PBS and stored in a fresh vial before snap freezing in liquid nitrogen. […]

- binding of PI3Kα to lipid membranes, maximum level (PI3Kα): about half of that induced by pY
- number of protein kinases inhibited between 25-50% ([1]; 1 μM of 1938): 13
- activity of other PI3K isoforms and PI3K-related kinases in the panel ([1]; PI3Kβ, PI3Kγ, PI3Kδ, PI3K-C2α, Vps34, PI4Kβ, mTOR, DNA-PK, 1 μM): did not affect
Compound: CCN1CCN(c2ccc(Nc3cc(Nc4cccc5c4N(C(C)=O)CC5)ccn3)cc2)CC1 [Example 1938]
- pAKT in sciatic nerve [2]: induction of pAKT
